Reference: US7022739B2, “Substituted 1-aminobutan-3-ol compounds” (Gruenenthal GmbH, priority 2000, dated 2006)

Legend:
[1] = test system: phenylquinone-induced writhing; assay: Phenylquinone-induced writhing test in mice; format: in vivo; conditions: male NMRI mice, groups of 10
[2] = test system: gabapentin binding site; assay: Gabapentin binding assay (displacement of gabapentin from its binding site)
Protocol: Gabapentin is used in the binding assay in order to check the binding and affinities of the selected compounds. The affinity of the compounds according to the invention is measured via the displacement of gabapentin from its binding site.

| Structure (SMILES) | Reacting Animals/Control Animals (Writhing) ([1]; 10 mg/kg, iv) | % Inhibition Gabapentin, 10 μmole [2] | other results |
| --- | --- | --- | --- |
| COc1cccc(C2(O)C(CN(C)C)CCCC2C2CCCCC2)c1 (stereo not shown) [Example 86, 3-dimethylaminomethyl-2-(3-methoxyphenyl)-bicyclohexyl-2-ol] |  |  | Reacting Animals/Control Animals (Writhing) ([1]; 21.5 mg/kg, po): 3/10 (21.5 mg/kg; po) |
| CN(C)CC1CCCC(Cc2ccccc2)C1(O)c1ccc(C(F)(F)F)cc1 (stereo not shown) [Example 87, 2-benzyl-6-dimethylaminomethyl-1-(4-trifluoromethylphenyl)-cyclohexanol] | 2/10 (10 mg/kg; iv) |  |  |
| CN(C)CC1CCCC(C(C)(C)C)C1(O)c1cccc(O)c1 (stereo not shown) [Example 89, 3-(2-tert.-butyl-6-dimethylaminomethyl-1-hydroxycyclohexyl)-phenol] | 3/10 (10 mg/kg; iv) |  |  |
| COc1cccc(C2CCCC(CN(C)C)C2(O)c2ccc(C)cc2)c1 (stereo not shown) [Example 76, 2-dimethylaminomethyl-6-(3-methoxyphenyl)-1-p-tolylcyclohexanol] |  | 53% |  |
| CN(C)CC1CCCC(Cc2ccccc2)C1(O)c1cccc(O)c1 (stereo not shown) [Example 88, 3-(2-benzyl-6-dimethylaminomethyl-1-hydroxycyclohexyl)-phenol] | 2/10 (10 mg/kg; iv) |  |  |
| CN(C)CC1CCCC(c2cccc(O)c2)C1(O)c1ccccc1 (stereo not shown) [Example 82, 3-(3-dimethylaminomethyl-2-hydroxy-2-phenylcyclohexyl)-phenol] |  | 55% |  |
| COc1cccc(C2CCCC(CN(C)C)C2(O)c2cccc(Cl)c2)c1 (stereo not shown) [Example 75, 1-(3-chlorophenyl)-2-dimethylaminomethyl-6-(3-methoxyphenyl)-cyclohexanol] |  | 54% |  |
| CN(C)CC1CCCC(c2cccc(O)c2)C1(O)c1ccc(F)cc1 (stereo not shown) [Example 81, 3-[3-dimethylaminomethyl-2-(4-fluorophenyl)-2-hydroxycyclohexyl]-phenol] |  | 48% |  |
| COc1cccc(C2CCCC(CN(C)C)C2(O)c2ccc(Cl)cc2)c1 (stereo not shown) [Example 45, 1-(4-chlorophenyl)-2-dimethylaminomethyl-6-(3-methoxyphenyl)-cyclohexanol] |  | 58% |  |
| COc1cccc(C2CCCC(CN(C)C)C2(O)c2ccc(Cl)cc2)c1 (stereo not shown) [Example 85, 1-(4-chlorophenyl)-2-dimethylaminomethyl-6-(3-methoxyphenyl)-cyclohexanol] |  |  | Reacting Animals/Control Animals (Writhing) ([1]; 46.4 mg/kg, iv): 10/10 (46.4 mg/kg; iv) |
